In patent US20090298866A1, “Indole Compounds” (priority 2006, published 2009):
Counter-ions that a name gives are not always drawn.

What was measured:
human EP3 receptor = target: T1, human EP3 receptor (Homo sapiens, UniProt P43115); assay: human EP3 calcium mobilisation assay; assay type: cell-based; conditions: heading: functional pKi; human EP3, CHO-K1 cells, PGE2-induced calcium mobilisation; averages of a number of experiments
T1 construct: expressed in transfected cells; host or cells: CHO-K1
T1 sequence (P43115 1-390): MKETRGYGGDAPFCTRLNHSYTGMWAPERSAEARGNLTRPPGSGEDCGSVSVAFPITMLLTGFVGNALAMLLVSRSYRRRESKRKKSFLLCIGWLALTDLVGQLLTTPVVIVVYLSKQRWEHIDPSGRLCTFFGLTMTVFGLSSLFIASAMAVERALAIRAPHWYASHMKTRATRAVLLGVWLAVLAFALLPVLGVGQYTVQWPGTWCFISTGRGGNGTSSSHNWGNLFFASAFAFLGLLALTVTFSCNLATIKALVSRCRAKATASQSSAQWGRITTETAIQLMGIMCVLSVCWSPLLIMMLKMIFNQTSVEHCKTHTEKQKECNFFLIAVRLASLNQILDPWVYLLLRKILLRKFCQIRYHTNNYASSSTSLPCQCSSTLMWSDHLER
Protocol: (§1) Briefly, the antagonist properties of compounds are assessed by their ability to inhibit the mobilisation of intracellular calcium ([Ca^2+]i) in response to activation of EP1 or EP3 receptors by the natural agonist hormone prostaglandin E2 (PGE2). Increasing concentrations of antagonist reduce the amount of calcium that a given concentration of PGE2 can mobilise. The net effect is to displace the PGE2 concentration-effect curve to higher concentrations of PGE2. The amount of calcium produced is assessed using a calcium-sensitive fluorescent dye such as Fluo-4, AM and a suitable instrument such as a Fluorimetric Imaging Plate Reader (FLIPR). Increasing amounts of [Ca^2+]i produced by receptor activation increase the amount of fluorescence produced by the dye and give rise to an increasing signal. The signal may be detected using the FLIPR instrument and the data generated may be analysed with suitable curve-fitting software.
(§2) The human EP1 or EP3 calcium mobilisation assay (hereafter referred to as ‘the calcium assay’) utilises Chinese hamster ovary-K1 (CHO-K1) cells into which a stable (pCIN; BioTechniques 20 (1996): 102-110) vector containing either EP1 or EP3 cDNA has previously been transfected. Cells are cultured in suitable flasks containing culture medium such as DMEM:F-12 supplemented with 10% v/v foetal calf serum, 2 mM L-glutamine, 0.25 mg/ml geneticin, 100 μM flurbiprofen and 10 μg/ml puromycin.
(§3) For assay, cells are harvested using a proprietary reagent that dislodges cells such as Versene. Cells are re-suspended in a suitable quantity of fresh culture media for introduction into a 384-well plate. Following incubation for 24 hours at 37° C. the culture media is replaced with a medium containing Fluo-4 and the detergent pluronic acid, and a further incubation takes place. Concentrations of compounds are then added to the plate in order to construct concentration-effect curves. This may be performed on the FLIPR in order to assess the agonist properties of the compounds. Concentrations of PGE2 are then added to the plate in order to assess the antagonist properties of the compounds.
(§4) The data so generated may be analysed by means of a computerised curve-fitting routine. The concentration of compound that elicits a half-maximal inhibition of the calcium mobilisation induced by PGE2 (pIC50) may then be estimated.

human EP1 receptor [1] = target: T2, human EP1 receptor (Homo sapiens, UniProt P34995); assay: human EP1 calcium mobilisation assay; assay type: cell-based; conditions: human EP1, CHO-K1 cells, PGE2-induced calcium mobilisation; averages of a number of experiments; read-out: functional pKi (converted)
T2 construct: expressed in transfected cells; host or cells: CHO-K1
T2 sequence (P34995 1-402): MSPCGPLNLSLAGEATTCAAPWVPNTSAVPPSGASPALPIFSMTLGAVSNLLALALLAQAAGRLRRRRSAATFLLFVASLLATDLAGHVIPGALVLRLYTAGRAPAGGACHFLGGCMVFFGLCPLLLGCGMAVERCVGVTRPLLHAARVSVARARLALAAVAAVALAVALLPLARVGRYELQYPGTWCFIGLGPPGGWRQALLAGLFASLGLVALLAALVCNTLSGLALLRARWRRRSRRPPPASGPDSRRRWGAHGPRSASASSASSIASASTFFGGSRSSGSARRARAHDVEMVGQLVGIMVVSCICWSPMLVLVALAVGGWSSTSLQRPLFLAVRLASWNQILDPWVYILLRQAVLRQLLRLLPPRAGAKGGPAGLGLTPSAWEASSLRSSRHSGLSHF
Protocol: as §1, §2, §3, §4

human EP1 receptor [2] = target: T2, human EP1 receptor; assay: Binding assay for the human prostanoid EP1 receptor (competition with [3H]-PGE2); conditions: binding to human EP1 receptor, CHO-K1 membranes, [3H]-PGE2 3 nM; averages of a number of experiments
Protocol: Competition assay using [^3H]-PGE2.
Compound potencies are determined using a radioligand binding assay. In this assay compound potencies are determined from their ability to compete with tritiated prostaglandin E2 ([^3H]-PGE2) for binding to the human EP1 receptor. This assay utilises Chinese hamster ovary-K1 (CHO-K1) cells into which a stable vector containing the EP1 cDNA has previously been transfected. Cells are cultured in suitable flasks containing culture medium such as DMEM:F-12 supplemented with 10% v/v foetal calf serum, 2 mM L-glutamine, 0.25 mg/ml geneticin, 10 μg/ml puromycin and 10 μM indomethacin.
Cells are detached from the culture flasks by incubation in calcium and magnesium free phosphate buffered saline containing 1 mM disodium ethylenediaminetetraacetic acid (Na2EDTA) and 10 μM indomethacin for 5 min. The cells are isolated by centrifugation at 250×g for 5 mins and suspended in an ice cold buffer such as 50 mM Tris, 1 mM Na2EDTA, 140 mM NaCl, 10 μM indomethacin (pH 7.4). The cells are homogenised using a Polytron tissue disrupter (2×10 s burst at full setting), centrifuged at 48,000×g for 20 mins and the pellet containing the membrane fraction is washed (optional) three times by suspension and centrifugation at 48,000×g for 20 mins. The final membrane pellet is suspended in an assay buffer such as 10 mM 2-[N-morpholino]ethanesulphonic acid, 1 mM Na2EDTA, 10 mM MgCl2 (pH 6). Aliquots are frozen at −80° C. until required.
For the binding assay the cell membranes, competing compounds and [^3H]-PGE2 (3 nM final assay concentration) are incubated in a final volume of 100 μl for 30 min at 30° C. All reagents are prepared in assay buffer. Reactions are terminated by rapid vacuum filtration over GF/B filters using a Brandell cell harvester. The filters are washed with ice cold assay buffer, dried and the radioactivity retained on the filters is measured by liquid scintillation counting in Packard TopCount scintillation counter.
The data are analysed using non linear curve fitting techniques to determine the concentration of compound producing 50% inhibition of specific binding (IC50).

[3] = test system: rat model of chronic constriction injury; conditions: Anesthesia and Analgesia 2001, 93, 1012-7; cited from earlier work
[4] = test system: rodent model of post-operative pain; conditions: Anesthesia and Analgesia 2001, 92, 233-238; cited from earlier work

Row | Ki (human EP3 receptor) [µM] | IC50 (human EP1 receptor [2]) [µM] | SMILES | other results
1 | > 3.16 |  | CC(C)Cc1cn(-c2nc(NC(=O)c3cccnc3)cs2)c2cc(Cl)ccc12 [Example 6, N-[2-(6-Chloro-3-isobutyl-1H-indol-1-yl)-1,3-thiazol-4-yl]nicotinamide] | 
2 | > 3.16 |  | CC(C)Cc1cn(-c2nc(NC(=O)c3ccc(CO)cc3)cs2)c2cc(Cl)ccc12 [Example 9, N-[2-(6-Chloro-3-isobutyl-1H-indol-1-yl)-1,3-thiazol-4-yl]-4-(hydroxymethyl)benzamide] | 
3 | > 3.16 |  | CCCNC(=O)Nc1csc(-n2cc(CC(C)C)c3ccc(Cl)cc32)n1 [Example 10, N-[2-(6-Chloro-3-isobutyl-1H-indol-1-yl)-1,3-thiazol-4-yl]-N′-propylurea] | 
4 | > 3.16 |  | CC(C)Cc1cn(-c2nc(C(=O)Nc3ccncc3)cs2)c2cc(Cl)ccc12 [Example 25, 2-[6-Chloro-3-isobutyl-1H-indol-1-yl]-N-4-pyridinyl-1,3-thiazole-4-carboxamide] | 
5 | > 3.16 | ≤ 0.1 | CC(C)Cc1cn(-c2nc(C(=O)Nc3c(F)cccc3F)cs2)c2cc(Cl)ccc12 [Example 33, 2-[6-Chloro-3-isobutyl-1H-indol-1-yl]-N-(2,6-difluorophenyl)-1,3-thiazole-4-carboxamide] | Ki (human EP1 receptor [1]): ≤ 0.1 µM
6 | > 3.16 | ≤ 0.1 | CC(C)Cc1cn(-c2nc(-c3nc4ccccc4[nH]3)co2)c2cc(Cl)ccc12 [Example 36, 2-{2-[6-Chloro-3-isobutyl-1H-indol-1-yl]-1,3-oxazol-4-yl}-1H-benzimidazole hydrochloride] | 
7 | > 3.16 | ≤ 0.1 | CC(C)Cc1cn(-c2nc(-c3nc4cc(CO)ccc4[nH]3)cs2)c2cc(Cl)ccc12 [Example 45, (2-{2-[6-Chloro-3-isobutyl-1H-indol-1-yl]-1,3-thiazol-4-yl}-1H-benzimidazol-5-yl)methanol hydrochloride] | 
8 | > 3.16 |  | CC(C)Cc1cn(-c2nc(-c3nc4c(CO)cccc4[nH]3)cs2)c2cc(Cl)ccc12 [Example 46, (2-{2-[6-Chloro-3-isobutyl-1H-indol-1-yl]-1,3-thiazol-4-yl}-1H-benzimidazol-4-yl)methanol] | Ki (human EP1 receptor [1]): ≤ 0.1 µM
9 | > 3.16 |  | CC(C)Cc1cn(-c2nc(-c3nnc[nH]3)cs2)c2cc(Cl)ccc12 [Example 54, 3-[2-(6-Chloro-3-isobutyl-1H-indol-1-yl)-1,3-thiazol-4-yl]-4H-1,2,4-triazole] | 
10 | > 3.16 | ≤ 0.1 | Cc1nnc(-c2csc(-n3cc(CC(C)C)c4ccc(Cl)cc43)n2)[nH]1 [Example 55, 3-[2-(6-Chloro-3-isobutyl-1H-indol-1-yl)-1,3-thiazol-4-yl]-5-methyl-4H-1,2,4-triazole] | 
11 | > 3.16 |  | CC(=O)OCc1ccc(C(=O)Nc2csc(-n3cc(CC(C)C)c4ccc(Cl)cc43)n2)cc1 [Example 56, {4-[({2-[6-Chloro-3-(2-methylpropyl)-1H-indol-1-yl]-1,3-thiazol-4-yl}amino)carbonyl]phenyl}methyl acetate] | 
12 |  |  | Cc1cc(Cl)ccc1S(=O)(=O)NC[C@H]1C2CCC(CC2)[C@@H]1/C=C\CCCC(=O)O [ONO-8711] | hyperalgesia and allodynia [3]: reduces hyperalgesia and allodynia; mechanical hyperalgesia [4]: inhibits mechanical hyperalgesia
